The values below come from US20260151391A1, “TREATMENT OF MITOCHONDRIAL DISEASES WITH sGC STIMULATORS” (Tisento Therapeutics Inc., priority 2022, published 2026).

The subject of the data set is memory disruption induced by MK-801 in male Long Evans rats. The experiment in a line: Novel Object Recognition (NOR) test, memory disruption induced by MK-801. The format is in vivo, rat. As to conditions: any dose tested, oral. The procedure: In the present study, a memory saving model was used. MK-801 (Dizocilpine), an uncompetitive antagonist of the NMDA receptor was used to cause deficit of recognition memory. sGC stimulators were evaluated for their efficacy to prevent memory impairment induced by MK-801.
Adult male Long-Evans rats (275-299 gram at arrival from Envigo, Indianapolis, IN) were used in this study. Rats were placed in the experimental rooms and assigned unique identification numbers (tail marks). Rats were housed 2 per cage in polycarbonate cages with filter tops and acclimated for at least 7 days prior to testing. […]
NOR test was conducted in an open-field arena (40×40 cm) placed in a sound-attenuated room under dimmed lighting. […] All training and testing trials were video-taped and scored by an observer blind to treatments.
On Days 1 and 2, rats were allowed to freely explore the arena (no objects inside) for a 5-minute habituation period. […] Each rat was placed in the arena facing the same direction at the same position, and the time spent actively exploring the objects during a 3-minute training period (T1) was recorded. […] Each rat was placed back into the test arena in the presence of one familiar object and one novel object for 5 minutes, and the time spent exploring both objects was recorded. […]

Consider `Oc1nc(-c2cn3ccnc3c(Cc3cc(F)ccc3F)n2)ncc1F` [Compound I-20, 5-fluoro-2-(8-(2,5-difluorobenzyl)imidazo[1,2-a]pyrazin-6-yl)pyrimidin-4-ol], for which the “obvious side effects in NOR study” value is listed as “None of the rats in this study showed obvious side effects”.
